Assays:
[1] = target: human SGLT1 (Homo sapiens (Human), UniProt P13866); assay: SGLT1 assay: analogous 14C-AMG uptake test with hSGLT1 expressed in CHO-K1 or HEK293 cells; type: cell-based; details: n = 1-4
Procedure: (§1) The SGLT-2 assay is carried out as follows: CHO-hSGLT2 cells are cultivated in Ham's F12 Medium (BioWhittaker) with 10% foetal calf serum and 250 μg/mL zeocin (Invitrogen), and HEK293-hSGLT2 cells are cultivated in DMEM medium with 10% foetal calf serum and 250 μg/mL zeocin (Invitrogen). The cells are detached from the culture flasks by washing twice with PBS and subsequently treating with trypsin/EDTA. After the addition of cell culture medium the cells are centrifuged, resuspended in culture medium and counted in a Casy cell counter. Then 40,000 cells per well are seeded into a white, 96-well plate coated with poly-D-lysine and incubated overnight at 37° C., 5% CO2. The cells are washed twice with 250 μl of assay buffer (Hanks Balanced Salt Solution, 137 mM NaCl, 5.4 mM KCl, 2.8 mM CaCl2, 1.2 mM MgSO4 and 10 mM HEPES (pH 7.4), 50 μg/mL of gentamycin). 250 μl of assay buffer and 5 μl of test compound are then added to each well and the plate is incubated for a further 15 minutes in the incubator. 5 μl of 10% DMSO are used as the negative control. The reaction is started by adding 5 μl of 14 C— AMG (0.05 μCi) to each well. After 2 hours' incubation at 37° C., 5% CO2, the cells are washed again with 250 μl of PBS […] and then lysed by the addition of 25 μl of 0.1 N NaOH (5 min. at 37° C.). 200 μl of MicroScint20 (Packard) are added to each well and incubation is continued for a further 20 min at 37° C. After this incubation the radioactivity of the ^14C-AMG absorbed is measured in a Topcount (Packard) using a ^14C scintillation program.
To determine the selectivity with respect to human SGLT1 an analogous test is set up in which the cDNA for hSGLTI (Genbank Ace. No. NM000343) instead of hSGLT2 cDNA is expressed in CHO-K1 or HEK293 cells.
The title compounds of the Examples were evaluated in the above described assays and the results of which are collated in Table 1.

[2] = target: human sodium glucose co-transporter 2 (SGLT2) (Homo sapiens (Human), UniProt P31639); assay: SGLT-2 assay: 14C-AMG uptake in CHO-hSGLT2 or HEK-hSGLT2 cells; type: cell-based; details: n = 1-4
Procedure: These cell lines transport ^14C-labelled alpha-methyl-glucopyranoside (^14C-AMG, Amersham) into the interior of the cell in sodium-dependent manner.
as §1

[3] = title compounds of the Examples (prodrugs)

human SGLT1, sequence (P13866 whole entry): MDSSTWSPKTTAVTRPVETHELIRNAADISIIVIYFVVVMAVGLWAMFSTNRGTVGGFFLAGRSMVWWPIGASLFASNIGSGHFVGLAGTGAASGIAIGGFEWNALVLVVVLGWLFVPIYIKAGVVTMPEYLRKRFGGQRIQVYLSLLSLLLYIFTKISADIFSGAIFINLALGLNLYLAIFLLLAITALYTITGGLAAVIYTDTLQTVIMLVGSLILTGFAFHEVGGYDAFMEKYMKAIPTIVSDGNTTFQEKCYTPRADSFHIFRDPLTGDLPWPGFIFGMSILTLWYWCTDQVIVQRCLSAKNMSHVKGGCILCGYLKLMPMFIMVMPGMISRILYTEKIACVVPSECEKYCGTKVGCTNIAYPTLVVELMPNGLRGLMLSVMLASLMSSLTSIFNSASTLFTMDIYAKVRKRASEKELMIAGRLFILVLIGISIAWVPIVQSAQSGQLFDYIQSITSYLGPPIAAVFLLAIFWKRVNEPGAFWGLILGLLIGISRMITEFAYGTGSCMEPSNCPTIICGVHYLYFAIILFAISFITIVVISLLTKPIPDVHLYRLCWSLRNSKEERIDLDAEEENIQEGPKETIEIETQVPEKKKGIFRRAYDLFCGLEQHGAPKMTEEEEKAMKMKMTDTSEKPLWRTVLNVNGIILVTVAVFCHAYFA
human sodium glucose co-transporter 2 (SGLT2), sequence (P31639 whole entry): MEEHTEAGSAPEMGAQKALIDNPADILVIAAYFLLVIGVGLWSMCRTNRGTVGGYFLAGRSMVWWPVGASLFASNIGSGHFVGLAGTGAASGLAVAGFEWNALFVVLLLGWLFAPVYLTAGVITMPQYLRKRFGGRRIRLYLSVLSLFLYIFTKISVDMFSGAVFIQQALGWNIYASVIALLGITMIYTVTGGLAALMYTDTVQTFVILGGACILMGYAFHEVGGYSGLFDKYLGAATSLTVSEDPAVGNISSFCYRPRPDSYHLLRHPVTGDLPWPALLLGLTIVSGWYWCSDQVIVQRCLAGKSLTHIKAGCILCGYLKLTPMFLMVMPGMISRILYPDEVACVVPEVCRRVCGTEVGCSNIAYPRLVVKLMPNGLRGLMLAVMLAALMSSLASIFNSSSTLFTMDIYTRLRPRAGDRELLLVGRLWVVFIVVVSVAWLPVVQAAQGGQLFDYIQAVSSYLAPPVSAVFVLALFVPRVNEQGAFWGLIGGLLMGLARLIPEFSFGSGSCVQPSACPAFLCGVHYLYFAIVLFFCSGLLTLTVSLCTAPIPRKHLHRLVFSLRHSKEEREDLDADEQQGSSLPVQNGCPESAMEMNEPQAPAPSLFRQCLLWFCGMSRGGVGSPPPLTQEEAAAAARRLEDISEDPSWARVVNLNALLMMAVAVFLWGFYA

SMILES | IC50 [1] | IC50 ([2]; parent compound of the prodrugs) | IC50 [2, 3] | IC50 [1, 3]
CCc1ccc([C@@H]2O[C@H](CO)[C@@H](O)[C@H](O)[C@H]2O)cc1Cc1ccc2c(c1)OCCO2 [(2S,3R,4R,5S,6R)-2-[3-(2,3-Dihydro-benzo[1,4]dioxin-6-ylmethyl)-4-ethyl-phenyl]-6-hydroxymethyl-tetrahydro-pyran-3,4,5-triol] | 22 nM |  |  | 
OC[C@H]1O[C@@H](c2ccc(C3CC3)c(Cc3ccc4c(c3)OCCO4)c2)[C@H](O)[C@@H](O)[C@@H]1O [(2S,3R,4R,5S,6R)-2-[4-Cyclopropyl-3-(2,3-dihydro-benzo[1,4]dioxin-6-ylmethyl)-phenyl]-6-hydroxymethyl-tetrahydro-pyran-3,4,5-triol] | 9 nM | 2.2 nM |  | 
CCc1ccc([C@@H]2O[C@H](COC(=O)[C@H](N)C(C)C)[C@@H](O)[C@H](O)[C@H]2O)cc1Cc1ccc2c(c1)OCCO2 [Example 1, (R)-2-Amino-3-methyl-butyric acid (2R,3S,4R,5R,6S)-6-[3-(2,3-dihydro-benzo[1,4]dioxin-6-ylmethyl)-4-ethyl-phenyl]-3,4,5-trihydroxy-tetrahydro-pyran-2-ylmethyl ester] |  |  | 22.5 nM | 409 nM
COC(=O)OC[C@H]1O[C@@H](c2ccc(C3CC3)c(Cc3ccc4c(c3)OCCO4)c2)[C@H](O)[C@@H](O)[C@@H]1O [Example 2, carbonic acid (2R,3S,4R,5R,6S)-6-[4-cyclopropyl-3-(2,3-dihydro-benzo[1,4]dioxin-6-ylmethyl)-phenyl]-3,4,5-trihydroxy-tetrahydro-pyran-2-ylmethyl ester methyl ester] |  |  | 17.5 nM | 35 nM
CCOP(=O)(OCC)OC[C@H]1O[C@@H](c2ccc(CC)c(Cc3ccc4c(c3)OCCO4)c2)[C@H](O)[C@@H](O)[C@@H]1O [Example 3, phosphoric acid (2R,3S,4R,5R,6S)-6-[3-(2,3-dihydro-benzo[1,4]dioxin-6-ylmethyl)-4-ethyl-phenyl]-3,4,5-trihydroxy-tetrahydro-pyran-2-ylmethyl ester diethyl ester] |  |  | > 1000 nM | 814 nM
CCOP(=O)(OCC)OC[C@H]1O[C@@H](c2ccc(C3CC3)c(Cc3ccc4c(c3)OCCO4)c2)[C@H](O)[C@@H](O)[C@@H]1O [Example 3a, Phosphoric acid (2R,3S,4R,5R,6S)-6-[4-cyclopropyl-3-(2,3-dihydro-benzo[1,4]dioxin-6-ylmethyl)-phenyl]-3,4,5-trihydroxy-tetrahydro-pyran-2-yl methyl ester diethyl ester] |  |  | > 1000 nM | 5650 nM

Now from value to molecule:

IC50 [1] | IC50 ([2]; parent compound of the prodrugs) | IC50 [2, 3] | IC50 [1, 3] | SMILES
 |  | 97 nM | 308 nM | CCOC(=O)OC[C@H]1O[C@@H](c2ccc(C3CC3)c(Cc3ccc4c(c3)OCCO4)c2)[C@H](O)[C@@H](O)[C@@H]1O [Example 2a, Carbonic acid (2R,3S,4R,5R,6S)-6-[4-cyclopropyl-3-(2,3-dihydro-benzo[1,4]dioxin-6-ylmethyl)-phenyl]-3,4,5-trihydroxy-tetrahydro-pyran-2-ylmethyl ester ethyl ester]
 |  | 186 nM | 338 nM | CC(C)COC(=O)OC[C@H]1O[C@@H](c2ccc(C3CC3)c(Cc3ccc4c(c3)OCCO4)c2)[C@H](O)[C@@H](O)[C@@H]1O [Example 2b, Carbonic acid (2R,3S,4R,5R,6S)-6-[4-cyclopropyl-3-(2,3-dihydro-benzo[1,4]dioxin-6-ylmethyl)-phenyl]-3,4,5-trihydroxy-tetrahydro-pyran-2-ylmethyl ester isobutyl ester]
 |  | 27 nM | 197 nM | CCOC(=O)OC[C@H]1O[C@@H](c2ccc(CC)c(Cc3ccc4c(c3)OCCO4)c2)[C@H](O)[C@@H](O)[C@@H]1O [Example 2c, Carbonic acid (2R,3S,4R,5R,6S)-6-[3-(2,3-dihydro-benzo[1,4]dioxin-6-ylmethyl)-4-ethyl-phenyl]-3,4,5-trihydroxy-tetrahydro-pyran-2-ylmethyl ester ethyl ester]
 |  | 143 nM | 3440 nM | CCc1ccc([C@@H]2O[C@H](COC(=O)OCC3CC4CCC3C4)[C@@H](O)[C@H](O)[C@H]2O)cc1Cc1ccc2c(c1)OCCO2 (stereo partly drawn) [Example 2f, Carbonic acid bicyclo[2.2.1]hept-2-ylmethyl ester (2R,3S,4R,5R,6S)-6-[3-(2,3-dihydro-benzo[1,4]dioxin-6-ylmethyl)-4-ethyl-phenyl]-3,4,5-trihydroxy-tetrahydro-pyran-2-ylmethyl ester]
 |  | 567 nM | 1000 nM | CCc1ccc([C@@H]2O[C@H](COC(=O)O[C@@H](C)c3ccccc3)[C@@H](O)[C@H](O)[C@H]2O)cc1Cc1ccc2c(c1)OCCO2 [Example 2g, Carbonic acid (2R,3S,4R,5R,6S)-6-[3-(2,3-dihydro-benzo[1,4]dioxin-6-ylmethyl)-4-ethyl-phenyl]-3,4,5-trihydroxy-tetrahydro-pyran-2-ylmethyl ester (S)-1-phenyl-ethyl ester]

From patent US8614195B2, “Glycoside derivatives and uses thereof” (Novartis AG, priority 2011, dated 2013)
